Results: US20250034167A1, “HETEROCYCLIC COMPOUNDS AND METHODS OF USE” (AMGEN INC., priority 2021, published 2025)
Read-outs that look alike come from different tables or passages of the source.

Experiments:
[1] = system: Phosphorylation of ERK1/2 in AsPC-1 cells; experiment: Phospho-ERK1/2 MSD Assay; assay type: cell-based
Method: Sixteen hours prior to compound treatment, AsPC-1 cells were seeded in 96-well cell culture plates at a density of 25,000 cells/well and incubated at 37° C., 5% CO2. A compound dose-response titration was diluted in growth media, added to appropriate wells of a cell culture plate, and then incubated at 37° C., 5% CO2 for 2 hours.

[2] = molecular target: His-tagged KRAS G12D protein (Homo sapiens, UniProt P01116, G12D); experiment: biochemical
Chain of His-tagged KRAS G12D protein (P01116 1-188 isoform P01116-2 G12D): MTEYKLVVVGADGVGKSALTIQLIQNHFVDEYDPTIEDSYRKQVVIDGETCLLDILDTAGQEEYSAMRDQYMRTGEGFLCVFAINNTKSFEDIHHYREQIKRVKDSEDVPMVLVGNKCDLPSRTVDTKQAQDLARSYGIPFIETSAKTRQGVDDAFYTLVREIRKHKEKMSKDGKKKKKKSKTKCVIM

[3] = Homo sapiens, ASPC1, 2 h, read-out: 2 h p-ERK (AsPC-1 cells), IC50, AsPC-1 cells, 2 h compound treatment
[4] = read-out: 2 h p-ERK (AsPC-1 cells), IC50, AsPC-1 cells, 2 h compound treatment
[5] = Homo sapiens, ASPC1, read-out: 2 h p-ERK (AsPC-1 cells), IC50, AsPC-1 cells, 2 h compound treatment

Structure (SMILES)	IC50 [1, 3]	IC50 [2]	IC50 [1, 4]	IC50 [1, 5]
CCc1c(F)ccc2cc(O)cc(-c3ncc4c(N5CC(C)CC(O)C5)nc(OC[C@@]56CCCN5C[C@H](F)C6)nc4c3F)c12 (mixture of isomers) [Example 96, rac-(3R,5S)-1-(7-(8-Ethyl-7-fluoro-3-hydroxynaphthalen-1-yl)-8-fluoro-2-(((2R,7aS)-2-fluorotetrahydro-1H-pyrrolizin-7a(5H)-yl)methoxy)pyrido[4,3-d]pyrimidin-4-yl)-5-methylpiperidin-3-ol]	119 nM	5 nM		
CCc1c(F)ccc2cc(O)cc(-c3ncc4c(N5C[C@@H](O)C[C@H](F)C5)nc(OC[C@@]56CCCN5C[C@H](F)C6)nc4c3F)c12 (racemic) [Example 116, rac-(35,5S)-1-(7-(8-Ethyl-7-fluoro-3-hydroxynaphthalen-1-yl)-8-fluoro-2-(((2R,7aS)-2-fluorotetrahydro-1H-pyrrolizin-7a(5H)-yl)methoxy)pyrido[4,3-d]pyrimidin-4-yl)-5-fluoropiperidin-3-ol]	792 nM	4 nM		
CCc1c(F)ccc2cc(O)cc(-c3ncc4c(N5CCC[C@H]6OCC[C@H]65)nc(OC[C@@]56CCCN5C[C@H](F)C6)nc4c3F)c12 (relative stereo) [Example 42, rel-5-Ethyl-6-fluoro-4-(8-fluoro-2-(((2R,7aS)-2-fluorotetrahydro-1H-pyrrolizin-7a(5H)-yl)methoxy)-4-((3aR,7aR)-hexahydrofuro[3,2-b]pyridin-4(2H)-yl)pyrido[4,3-d]pyrimidin-7-yl)naphthalen-2-ol]	810 nM	38 nM		
CCc1c(F)ccc2cc(O)cc(-c3ncc4c(N5CC[C@H](O)[C@H](O)C5)nc(OC[C@@]56CCCN5C[C@H](F)C6)nc4c3F)c12 (relative stereo) [Example 100, rel-(3R,4S)-1-(7-(8-Ethyl-7-fluoro-3-hydroxynaphthalen-1-yl)-8-fluoro-2-(((2R,7aS)-2-fluorotetrahydro-1H-pyrrolizin-7a(5H)-yl)methoxy)pyrido[4,3-d]pyrimidin-4-yl)piperidine-3,4-diol]	3700 nM	9 nM		
CCc1c(F)ccc2cc(O)cc(-c3ncc4c(N5CC[C@H](O)[C@@H](O)C5)nc(OC[C@@]56CCCN5C[C@H](F)C6)nc4c3F)c12 (relative stereo) [Example 101, rel-(3S,4S)-1-(7-(8-Ethyl-7-fluoro-3-hydroxynaphthalen-1-yl)-8-fluoro-2-(((2R,7aS)-2-fluorotetrahydro-1H-pyrrolizin-7a(5H)-yl)methoxy)pyrido[4,3-d]pyrimidin-4-yl)piperidine-3,4-diol]	> 10000 nM	20 nM		
CCc1c(F)ccc2cc(O)cc(-c3ncc4c(N5CC6CC(O)C(C6)C5)nc(OC[C@@]56CCCN5C[C@H](F)C6)nc4c3F)c12 (single isomer, unassigned) [Example 23]		31 nM	2380 nM	
C#Cc1c(F)ccc2cc(O)cc(-c3ncc4c(N5CC6CC(O)C(C6)C5)nc(OC[C@@]56CCCN5C[C@H](F)C6)nc4c3F)c12 (single isomer, unassigned) [Example 27]		6 nM	1030 nM	
CCc1c(F)ccc2cc(O)cc(-c3ncc4c(N5CCCC(O)(C(F)F)C5)nc(OC[C@@]56CCCN5C[C@H](F)C6)nc4c3F)c12 (single isomer, unassigned) [Example 40]		15 nM	571 nM	
CCc1c(F)ccc2cc(O)cc(-c3ncc4c(N5CCCCC(C)(O)C5)nc(OC[C@@]56CCCN5C[C@H](F)C6)nc4c3F)c12 (single isomer, unassigned) [Example 136]		10 nM	614 nM	
CCc1c(F)ccc2cc(O)cc(-c3ncc4c(N5CC6CC(C#N)C(C6)C5)nc(OC[C@@]56CCCN5C[C@H](F)C6)nc4c3F)c12 (single isomer, unassigned) [Example 145]		8 nM	593 nM	
CCc1c(F)ccc2cc(O)cc(-c3ncc4c(N5CC(C)CC(C(N)=O)C5)nc(OC[C@@]56CCCN5C[C@H](F)C6)nc4c3F)c12 (single isomer, unassigned) [Example 163]		11 nM	2730 nM	
CCc1c(F)ccc2cc(O)cc(-c3ncc4c(N5CC(C)CC(C(N)=O)C5)nc(OC[C@@]56CCCN5C[C@H](F)C6)nc4c3F)c12 (single isomer, unassigned) [Example 164]		3 nM	1200 nM	
[2H]C([2H])([2H])[C@@]1(O)CCCN(c2nc(OC[C@@]34CCCN3C[C@H](F)C4)nc3c(F)c(-c4cc(O)cc5ccc(F)c(CC)c45)ncc23)C1 [Example 176, (R)-1-(7-(8-Ethyl-7-fluoro-3-hydroxynaphthalen-1-yl)-8-fluoro-2-(((2R,7aS)-2-fluorotetrahydro-1H-pyrrolizin-7a(5H)-yl)methoxy)pyrido[4,3-d]pyrimidin-4-yl)-3-(methyl-d3)piperidin-3-ol]				5 nM
[2H]C([2H])([2H])[C@]1(O)CCCN(c2nc(OC[C@@]34CCCN3C[C@H](F)C4)nc3c(F)c(-c4cc(O)cc5ccc(F)c(CC)c45)ncc23)C1 [Example 177, (S)-1-(7-(8-Ethyl-7-fluoro-3-hydroxynaphthalen-1-yl)-8-fluoro-2-(((2R,7aS)-2-fluorotetrahydro-1H-pyrrolizin-7a(5H)-yl)methoxy)pyrido[4,3-d]pyrimidin-4-yl)-3-(methyl-d3)piperidin-3-ol]				109 nM
CCc1c(F)ccc2cc(O)cc(-c3ncc4c(N5CCC[C@@](C)(O)C5)nc(OC[C@]56CCCN5C[C@@H](F)C6)nc4c3F)c12 [Example 178, (R)-1-(7-(8-Ethyl-7-fluoro-3-hydroxynaphthalen-1-yl)-8-fluoro-2-(((2S,7aR)-2-fluorotetrahydro-1H-pyrrolizin-7a(5H)-yl)methoxy)pyrido[4,3-d]pyrimidin-4-yl)-3-methylpiperidin-3-ol bis(2,2,2-trifluoroacetate)]				8 nM
CCc1c(F)ccc2cc(O)cc(-c3ncc4c(N5CCC[C@@](C)(O)C5)nc(OCC5(CN(C)C)CC5)nc4c3F)c12 [Example 180, (R)-1-(2-((1-((Dimethylamino)methyl)cyclopropyl)methoxy)-7-(8-ethyl-7-fluoro-3-hydroxynaphthalen-1-yl)-8-fluoropyrido[4,3-d]pyrimidin-4-yl)-3-methylpiperidin-3-ol]	12 nM			

More lines, main results first:

IC50 [1, 3]	IC50 [2]	IC50 [1, 4]	Structure (SMILES)	IC50 [1, 5]
83 nM	3 nM		CCc1c(F)ccc2cc(O)cc(-c3ncc4c(N5C[C@@H](O)C[C@@H](F)C5)nc(OC[C@@]56CCCN5C[C@H](F)C6)nc4c3F)c12 (mixture of isomers) [Example 115, rac-(3S,5R)-1-(7-(8-Ethyl-7-fluoro-3-hydroxynaphthalen-1-yl)-8-fluoro-2-(((2R,7aS)-2-fluorotetrahydro-1H-pyrrolizin-7a(5H)-yl)methoxy)pyrido[4,3-d]pyrimidin-4-yl)-5-fluoropiperidin-3-ol]	
414 nM	3 nM		CCc1c(F)ccc2cc(O)cc(-c3ncc4c(N5C[C@H](C)C[C@@H](O)C5)nc(OC[C@@]56CCCN5C[C@H](F)C6)nc4c3F)c12 (relative stereo) [Example 160, rel-(3R,5R)-1-(7-(8-Ethyl-7-fluoro-3-hydroxy-naphthalen-1-yl)-8-fluoro-2-(((2R,7aS)-2-fluorotetrahydro-1H-pyrrolizin-7a(5H)-yl)methoxy)pyrido[4,3-d]pyrimidin-4-yl)-5-methylpiperidin-3-ol]	
	2 nM	14 nM	CCc1c(F)ccc2cc(O)cc(-c3ncc4c(N5CC6CC(O)C(C6)C5)nc(OC[C@@]56CCCN5C[C@H](F)C6)nc4c3F)c12 (single isomer, unassigned) [Example 24]	
	1 nM	36 nM	C#Cc1c(F)ccc2cc(O)cc(-c3ncc4c(N5CC6CC(O)C(C6)C5)nc(OC[C@@]56CCCN5C[C@H](F)C6)nc4c3F)c12 (single isomer, unassigned) [Example 28]	
31 nM	1 nM		CCc1cccc2cc(O)cc(-c3ncc4c(N5CC6CC(O)C(C6)C5)nc(OC[C@@]56CCCN5C[C@H](F)C6)nc4c3F)c12 (single isomer, unassigned) [Example 29]	
399 nM	3 nM		Oc1cc(Cl)c(C2CC2)c(-c2ncc3c(N4CC5CC(O)C(C5)C4)nc(OC[C@@]45CCCN4C[C@H](F)C5)nc3c2F)c1 (single isomer, unassigned) [Example 30]	
32 nM	2 nM		C#Cc1cccc2cc(O)cc(-c3ncc4c(N5CC6CC(O)C(C6)C5)nc(OC[C@@]56CCCN5C[C@H](F)C6)nc4c3F)c12 (single isomer, unassigned) [Example 31]	
	2 nM	13 nM	CCc1c(F)ccc2cc(O)cc(-c3ncc4c(N5CCCC(O)(C(F)F)C5)nc(OC[C@@]56CCCN5C[C@H](F)C6)nc4c3F)c12 (single isomer, unassigned) [Example 39]	
25 nM	1 nM		C#Cc1c(F)ccc2cc(O)cc(-c3ncc4c(N5CCCC(O)(C(F)F)C5)nc(OC[C@@]56CCCN5C[C@H](F)C6)nc4c3F)c12 (single isomer, unassigned) [Example 41]	
	3 nM	116 nM	CCc1c(F)ccc2cc(O)cc(-c3ncc4c(N5CCCC(C#N)CC5)nc(OC[C@@]56CCCN5C[C@H](F)C6)nc4c3F)c12 (single isomer, unassigned) [Example 54]	
	2 nM	40 nM	CCc1c(F)ccc2cc(O)cc(-c3ncc4c(N5CCCCC(C)(O)C5)nc(OC[C@@]56CCCN5C[C@H](F)C6)nc4c3F)c12 (single isomer, unassigned) [Example 137]	
	2 nM	233 nM	CCc1c(F)ccc2cc(O)cc(-c3ncc4c(N5CC6CC(C#N)C(C6)C5)nc(OC[C@@]56CCCN5C[C@H](F)C6)nc4c3F)c12 (single isomer, unassigned) [Example 146]	
